Measured values taken from PubChem BioAssay (NCI).
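Tested at 5 concentrations; 48 h exposure; 96-well plates; endpoints linearly interpolated, else capped at highest concentration. Abbreviation: GI50, concentration required for 50% inhibition of growth. TGI is the concentration that stops growth completely.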

Assays:
Assay in all cases: NCI anticancer screen, dose series, 48 h
[1] = tested on: A549 NSCLC
[2] = tested on: 786-0 renal
[3] = tested on: SF-539 CNS
[4] = tested on: HT29 colon
[5] = tested on: NCI-H522 lung
[6] = tested on: LOX IMVI melanoma
[7] = tested on: SNB-19 CNS
[8] = tested on: HOP-62 NSCLC
[9] = tested on: SK-MEL-5 melanoma
[10] = tested on: MDA-MB-231 breast

SMILES	TGI [1] [µM]	TGI [2] [µM]	TGI [3] [µM]	TGI [4] [µM]	TGI [5] [µM]	TGI [6] [µM]	TGI [7] [µM]	TGI [8] [µM]	GI50 [9] [µM]	TGI [9] [µM]	GI50 [4] [µM]	GI50 [5] [µM]	TGI [10] [µM]
COc1ccc(-c2nnc(-c3c(C)n(C)n(-c4ccccc4)c3=O)o2)cc1	> 100	> 100	> 100	> 100	> 100	> 100	> 100	> 100	–	–	–	–	–
C/C(=N\NC(=O)c1cccnc1)c1cccc(/C(C)=N/NC(=O)c2cccnc2)n1.CC(=O)[O-].CC(=O)[O-].[Zn+2]	> 57.4	> 100	6.55	> 100	> 21.7	> 32.5	> 100	65.6	12.9	> 28.6	5.64	0.134	–
CNc1ncnc2c1nnn2C	> 100	> 100	> 100	> 100	> 100	> 100	> 100	> 100	–	> 100	–	–	–
CN1CCN(/C(N)=C(\C#N)C(=O)Nc2ccccc2)CC1	> 100	> 100	> 100	–	–	> 100	> 100	> 100	–	> 100	–	–	–
O=S(=O)(O)c1cc(Nc2ccnc3ccccc23)c2c(S(=O)(=O)O)cc(S(=O)(=O)O)cc2c1	> 100	> 100	> 100	> 100	> 100	> 100	–	> 100	–	> 100	–	–	> 100
CC(C)N1CCC2(CC1)NNc1ncccc1-n1cccc12	> 100	> 100	> 100	> 100	> 100	> 100	> 100	> 100	–	> 100	–	–	–
c1ccc(CCN2CCN=C2Cc2ccccc2)cc1	> 100	> 100	–	> 100	> 100	> 100	> 100	> 100	–	> 100	–	–	> 100
C[C@H](CN1CC(=O)NC(=O)C1)N1CC(=O)NC(=O)C1	> 100	–	> 100	> 100	> 71.2	> 100	> 100	> 100	–	> 100	–	–	–
O=C(NC12CC3CC(CC(C3)C1)C2)C(=O)c1c[nH]c2ccc([N+](=O)[O-])cc12	> 41.1	45.9	> 100	> 100	> 100	> 52	> 30.3	> 59.1	–	> 100	–	–	–
CC1C2CC(CC2N)C1(C)C (centres undefined)	> 100	> 100	> 100	> 100	> 100	–	> 100	> 100	–	> 100	–	–	> 100
O=c1oc2c/c(=C\c3ccccc3)c(=O)c3cccc1c3-2	> 100	53.9	67.1	> 100	45.1	40.7	67.9	44.1	–	–	–	–	69.2
CCOC(=O)c1cn(CC)c2cc3c(cc2c1=O)CCS3(=O)=O	> 100	> 100	> 100	> 100	–	–	> 100	> 100	–	> 100	–	–	> 100
NC(=O)CCC(NC(=O)c1cccc2c(=O)c3ccccc3[nH]c12)C(=O)O (centres undefined)	> 100	> 100	–	> 100	> 100	> 100	> 100	> 100	–	> 100	–	–	> 100
COC(=O)c1c(O)ccc2c1c1c(n2Cc2ccccn2)C(=O)c2ccccc2C1=O	> 100	> 100	42.9	17.4	95.6	–	> 100	77.7	–	> 100	–	–	> 100
COc1ccc(N=N/C(=N/NC(=O)c2cc(Cl)ccc2C(=O)c2ccccc2)c2ccc(N(CCC#N)CCC#N)cc2C)cc1	> 100	86.7	–	60.8	–	–	> 100	81.2	–	31.6	–	–	58.1
Nc1nn(CC(O)CO)c(=O)s1 (centres undefined)	> 100	–	> 100	> 100	–	> 100	> 100	> 100	–	> 100	–	–	–
N#CCSc1c(-c2ccccc2)c(=O)n(-c2ccccc2)c(=S)n1-c1ccccc1	> 100	> 100	–	> 100	> 100	> 100	> 100	> 100	–	> 100	–	–	–
Cc1c(O)c(=O)ccn1CCc1c[nH]c2ccccc12	> 100	9.06	49.6	32.7	–	17	> 100	> 100	–	24.1	–	–	6.47
COc1ccc2oc(=Nc3ccc(F)cc3)c(C(N)=O)cc2c1	> 100	40.4	–	> 100	> 100	> 100	> 100	> 100	–	> 100	–	–	39.3
CC1=Nc2c(C#N)ncn2N=C(C)C1	> 100	> 100	> 100	> 100	–	> 100	–	> 100	–	> 100	–	–	> 100
CCOC(=O)C1C[C@H]2CO[C@H](c3ccccc3)N2C1=O (some centres undefined)	> 100	> 100	> 100	> 100	> 100	> 100	> 100	–	–	> 100	–	–	> 100
C=CC[C@@H]1C=C[C@@H](C(=O)OC)n2c(=O)n(-c3ccccc3)c(=O)n21	–	> 100	> 100	> 100	> 100	> 100	> 100	> 100	–	> 100	–	–	> 100
COc1cc2c(cc1OC(=O)c1cc3ccccc3[nH]1)N=C[C@@H]1CCCN1C2=O	12	4.23	1.17	0.36	1.19	–	3.04	4.36	–	0.335	–	–	2.88
